Data set [1] has as its system whole sheep blood. Briefly: Tilt Tube Clot Test. The format is biochemical. The settings on record: Example 3. How it is done:
Beakers containing the mixtures were placed on a magnetic stirrer with a stirring rod placed therein. The stir plate was set to 300 RPM. Once the mixture appeared uniform, 130 μL of the mixture was pipetted into each of the appropriately labeled tubes. 20 samples per concentration were used. The samples were tested in a Tilt Tube Clot Test method described below. A water bath was prepared to 37±1° C., and a test tube holder was placed therein. One mL of whole sheep blood at 37° C. was pipetted into each test tube. 150 μL of CaCl2 at 37° C. was then pipetted into a tube and a timer was then started (time “0”). Tubes were capped and gently shaken twice to ensure that the CaCl2 was completely mixed with the blood, and then placed in the water bath. Tubes were tilted by 90° at 15 second intervals, beginning when the timer reads 45 seconds. The time to clot was determined by visual inspection and the clot time was recorded. A clot is defined as a solid mass that may or may not adhere to bottom of test tube. The average clot time for control blood and hemostatic agents was then calculated. […] Samples from Tests 11-13 and Test 10 from Example 2 were then further separated into 0.5″ by 0.5″ squares and added to test tubes. A Tilt Tube Clot Test, as described in Example 1, was performed.

A short description of data set [2]: Appearance of coated gauze after drying at 80° C. for 24 hours. In kind it is physicochemical. Conditions: exposure to 80° C. for 24 hours. The protocol: To coat the gauze, 20 mL of the coating mixture was poured into a flatbottom glass dish and then the gauze dipped into the mixture. The gauze was then lifted and allowed to drip. The coated gauze was placed on the wire rack and dried at 80° C. for 24 hrs. After drying was complete, samples were taken from the oven and remeasured for weight and moisture.
After coating, there were noticeable white clumps on the gauze.

Data set [3] in a line: Observation of salt dissolution in DI water during coating. Conditions: Example 3 coating mixture, 0.39 g in 100 mL DI water. In kind it is physicochemical.

The values that follow come from patent US20250352395A1, “ANTIMICROBIAL HEMOSTATIC DEVICES AND METHODS OF USE AND MAKING” (TELEFLEX LIFE SCIENCES II LLC, priority 2024, published 2025).

Counter-ions that a name gives are not always drawn.

In data set [1] (tested concentrations for CHA (300 and 50 μg/cm^2 targeted)), `CC(=O)O.CC(=O)O.NC(=N\CCCCCC/N=C(N)/N=C(\N)Nc1ccc(Cl)cc1)/N=C(\N)Nc1ccc(Cl)cc1` [CHA, Chlorhexidine diacetate] registered a clot time of no less than 150 s. For the same compound, the appearance after drying entry in data set [2] is “discolored, turning a yellow/orange”.
Turning to `[H]/N=C(\N/C(=N/[H])NCCCCCCNC(=N)NC(=N)Nc1ccc(Cl)cc1)Nc1ccc(Cl)cc1` [CHD, Chlorhexidine dihydrochloride], the “dissolution in DI water” value in data set [3] is reported as “did not dissolve”. Moreover, the clot time result in data set [1] (estimated 300 μg/cm^2, at some individual data points) is reported as “less than 150 seconds”.
